Data: patent US12600988B2, “Coronavirus pseudovirus packaging system, packaging method therefor, and application of coronavirus pseudovirus in evaluating disinfection efficacy” (priority 2020, dated 2026)
“Also recorded” adds a separate entry of the source.

Test system: COVID-19 pseudovirus
Parameters: species or system COVID-19 (SARS-CoV-2)

For O=[O+][O-] [ozone], the “inactivation of COVID-19 pseudovirus” value was “almost completely inactivated; also recorded: complete inactivation”.
